In test [1] the target is cAMP-dependent protein kinase catalytic subunit PRKX (Homo sapiens) (UniProt P51817). Put plainly: Inhibition of PRKX (unknown origin) at 1 uM by Ambit Kinomescan binding assay relative to control.
For test [2], the target named is Mitogen-activated protein kinase kinase kinase 12 (Homo sapiens) (UniProt Q12852). Put plainly: Inhibition of DLK (unknown origin) at 1 uM by Ambit Kinomescan binding assay relative to control.
The target in test [3] is Interleukin-1 receptor-associated kinase 3 (Homo sapiens) (UniProt Q9Y616). Put plainly: Inhibition of IRAK3 (unknown origin) at 1 uM by Ambit Kinomescan binding assay relative to control; values are per cent of control.
Interleukin-1 receptor-associated kinase 3 (Homo sapiens), sequence (Q9Y616 whole entry): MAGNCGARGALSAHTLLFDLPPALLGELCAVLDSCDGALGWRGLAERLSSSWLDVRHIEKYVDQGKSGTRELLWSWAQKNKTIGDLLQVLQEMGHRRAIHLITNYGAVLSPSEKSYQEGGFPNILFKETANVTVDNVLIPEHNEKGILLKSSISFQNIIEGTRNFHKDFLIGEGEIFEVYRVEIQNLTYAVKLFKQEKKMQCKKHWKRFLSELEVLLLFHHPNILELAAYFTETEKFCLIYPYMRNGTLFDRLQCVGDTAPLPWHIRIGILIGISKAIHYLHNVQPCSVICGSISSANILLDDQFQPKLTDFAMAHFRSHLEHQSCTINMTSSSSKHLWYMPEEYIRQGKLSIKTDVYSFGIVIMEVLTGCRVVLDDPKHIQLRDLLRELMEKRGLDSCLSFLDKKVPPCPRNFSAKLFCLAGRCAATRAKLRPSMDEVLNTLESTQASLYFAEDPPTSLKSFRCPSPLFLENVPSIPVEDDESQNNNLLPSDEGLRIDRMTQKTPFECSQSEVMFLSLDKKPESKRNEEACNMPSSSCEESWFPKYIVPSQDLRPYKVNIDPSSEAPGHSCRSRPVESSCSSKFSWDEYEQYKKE
In test [4] the target is Serine/threonine-protein kinase MARK1 (Homo sapiens) (UniProt Q9P0L2). Put plainly: Inhibition of MARK1 (unknown origin) at 10 uM by Ambit Kinomescan binding assay.
Serine/threonine-protein kinase MARK1 (Homo sapiens), sequence (Q9P0L2 whole entry, looked up): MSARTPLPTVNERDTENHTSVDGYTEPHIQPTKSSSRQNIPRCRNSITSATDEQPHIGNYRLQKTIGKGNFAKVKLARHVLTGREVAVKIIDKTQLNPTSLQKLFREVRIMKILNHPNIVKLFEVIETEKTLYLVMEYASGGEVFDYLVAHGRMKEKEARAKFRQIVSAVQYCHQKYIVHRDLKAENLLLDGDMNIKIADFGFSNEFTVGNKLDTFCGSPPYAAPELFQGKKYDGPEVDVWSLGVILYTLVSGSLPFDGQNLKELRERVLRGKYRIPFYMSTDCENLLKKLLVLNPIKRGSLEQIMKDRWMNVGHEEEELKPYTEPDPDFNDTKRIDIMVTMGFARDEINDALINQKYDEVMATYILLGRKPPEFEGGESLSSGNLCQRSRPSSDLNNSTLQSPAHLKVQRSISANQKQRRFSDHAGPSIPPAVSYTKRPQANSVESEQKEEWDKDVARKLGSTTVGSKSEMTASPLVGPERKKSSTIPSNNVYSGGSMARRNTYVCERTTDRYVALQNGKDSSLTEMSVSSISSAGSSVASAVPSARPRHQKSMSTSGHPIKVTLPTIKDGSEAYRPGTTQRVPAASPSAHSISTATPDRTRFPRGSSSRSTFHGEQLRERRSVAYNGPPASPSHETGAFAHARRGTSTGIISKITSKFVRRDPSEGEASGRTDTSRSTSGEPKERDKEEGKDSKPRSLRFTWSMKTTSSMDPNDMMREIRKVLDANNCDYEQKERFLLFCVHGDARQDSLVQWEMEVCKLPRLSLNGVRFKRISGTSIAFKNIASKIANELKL
Test [5] addresses Phosphatidylinositol 4-phosphate 5-kinase type-1 alpha (Homo sapiens) (UniProt Q99755). Briefly: Inhibition of PIP5K1A (unknown origin) at 10 uM by Ambit Kinomescan binding assay.
For test [6], the target named is T1, Mitogen-activated protein kinase kinase kinase 15 (Homo sapiens) (UniProt Q6ZN16).
T1 sequence (whole entry): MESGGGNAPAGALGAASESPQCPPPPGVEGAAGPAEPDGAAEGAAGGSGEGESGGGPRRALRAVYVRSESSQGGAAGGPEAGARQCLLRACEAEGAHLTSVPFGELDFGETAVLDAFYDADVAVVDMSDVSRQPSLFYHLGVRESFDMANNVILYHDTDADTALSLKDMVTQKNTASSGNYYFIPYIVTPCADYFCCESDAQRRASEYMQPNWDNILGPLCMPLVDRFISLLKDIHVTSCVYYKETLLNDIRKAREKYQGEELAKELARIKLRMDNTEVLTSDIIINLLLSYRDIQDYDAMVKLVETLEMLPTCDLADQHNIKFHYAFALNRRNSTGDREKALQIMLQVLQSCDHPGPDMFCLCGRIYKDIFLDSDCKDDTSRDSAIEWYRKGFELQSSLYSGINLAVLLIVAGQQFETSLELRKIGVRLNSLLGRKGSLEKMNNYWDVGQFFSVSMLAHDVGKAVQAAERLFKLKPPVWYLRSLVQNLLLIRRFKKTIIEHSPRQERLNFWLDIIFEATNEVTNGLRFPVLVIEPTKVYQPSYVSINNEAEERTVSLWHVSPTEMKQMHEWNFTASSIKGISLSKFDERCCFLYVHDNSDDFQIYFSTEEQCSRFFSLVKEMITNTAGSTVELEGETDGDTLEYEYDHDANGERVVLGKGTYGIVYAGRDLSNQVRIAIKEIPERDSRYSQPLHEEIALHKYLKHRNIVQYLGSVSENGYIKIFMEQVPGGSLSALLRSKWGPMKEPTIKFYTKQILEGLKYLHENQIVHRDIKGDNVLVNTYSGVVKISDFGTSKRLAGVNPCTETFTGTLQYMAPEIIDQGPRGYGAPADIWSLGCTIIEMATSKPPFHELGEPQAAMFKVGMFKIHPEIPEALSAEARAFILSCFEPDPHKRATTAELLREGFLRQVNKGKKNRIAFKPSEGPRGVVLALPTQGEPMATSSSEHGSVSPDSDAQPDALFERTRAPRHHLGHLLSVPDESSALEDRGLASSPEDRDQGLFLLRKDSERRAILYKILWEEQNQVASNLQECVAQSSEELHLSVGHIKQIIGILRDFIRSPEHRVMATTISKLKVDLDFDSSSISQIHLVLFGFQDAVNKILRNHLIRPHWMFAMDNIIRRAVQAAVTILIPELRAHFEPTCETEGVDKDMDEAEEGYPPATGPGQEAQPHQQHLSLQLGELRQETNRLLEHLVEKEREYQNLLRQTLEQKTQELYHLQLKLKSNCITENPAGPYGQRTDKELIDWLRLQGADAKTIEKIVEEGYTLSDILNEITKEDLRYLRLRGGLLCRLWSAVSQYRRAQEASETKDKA
Put plainly: Inhibition of MAP3K15 Lys1 labeling site harbouring IAIKEIPERDSR in human A-375 cells at 5 uM by KiNativ Profiling analysis relative to control. Format: cell-based.

Test [7] has as its target T2, Serine/threonine-protein kinase STK11 (Homo sapiens) (UniProt Q15831).
T2 sequence (whole entry): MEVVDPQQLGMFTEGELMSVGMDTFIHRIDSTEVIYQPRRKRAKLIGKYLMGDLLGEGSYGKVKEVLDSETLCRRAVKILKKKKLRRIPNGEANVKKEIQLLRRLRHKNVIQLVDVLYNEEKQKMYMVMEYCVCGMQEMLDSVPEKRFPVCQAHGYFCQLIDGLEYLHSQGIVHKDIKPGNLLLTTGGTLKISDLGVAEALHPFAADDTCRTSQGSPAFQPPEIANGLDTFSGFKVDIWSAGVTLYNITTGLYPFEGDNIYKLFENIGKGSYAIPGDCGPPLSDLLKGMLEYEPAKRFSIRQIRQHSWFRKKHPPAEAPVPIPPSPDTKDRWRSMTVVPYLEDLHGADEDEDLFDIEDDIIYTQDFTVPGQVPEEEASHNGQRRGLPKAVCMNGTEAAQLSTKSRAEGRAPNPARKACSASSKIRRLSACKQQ
Put plainly: Inhibition of LKB1 K2 labeling site in human Huh-7 cells at 1 uM by KiNativ Profiling analysis relative to control. Format: cell-based.

In test [8] the target is T3, Serine/threonine-protein kinase NLK (Homo sapiens) (UniProt Q9UBE8).
T3 sequence (whole entry): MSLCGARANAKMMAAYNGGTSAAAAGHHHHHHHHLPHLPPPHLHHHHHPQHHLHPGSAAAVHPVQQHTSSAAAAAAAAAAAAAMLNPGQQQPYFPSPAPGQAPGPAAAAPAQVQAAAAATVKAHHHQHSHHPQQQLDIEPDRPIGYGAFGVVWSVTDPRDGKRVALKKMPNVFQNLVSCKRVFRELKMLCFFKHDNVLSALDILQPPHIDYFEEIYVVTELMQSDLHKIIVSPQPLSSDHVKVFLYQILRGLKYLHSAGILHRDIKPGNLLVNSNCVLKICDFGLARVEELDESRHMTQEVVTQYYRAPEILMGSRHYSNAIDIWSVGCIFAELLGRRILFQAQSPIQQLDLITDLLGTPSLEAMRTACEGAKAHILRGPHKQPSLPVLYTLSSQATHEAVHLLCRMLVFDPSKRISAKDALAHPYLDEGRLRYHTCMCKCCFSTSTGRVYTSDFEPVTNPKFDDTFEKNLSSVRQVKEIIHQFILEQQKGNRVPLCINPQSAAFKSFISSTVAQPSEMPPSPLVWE
Put plainly: Inhibition of NLK (unknown origin) at 10 uM by Ambit Kinomescan binding assay relative to control; values are per cent of control.

The target of test [9] is Epidermal growth factor receptor (Homo sapiens) (UniProt P00533). Put plainly: Inhibition of EGFR ACT labeling site in human Huh-7 cell lysate at 1 uM by KiNativ Profiling analysis relative to control. Format: subcellular.
Epidermal growth factor receptor (Homo sapiens), sequence (P00533 whole entry): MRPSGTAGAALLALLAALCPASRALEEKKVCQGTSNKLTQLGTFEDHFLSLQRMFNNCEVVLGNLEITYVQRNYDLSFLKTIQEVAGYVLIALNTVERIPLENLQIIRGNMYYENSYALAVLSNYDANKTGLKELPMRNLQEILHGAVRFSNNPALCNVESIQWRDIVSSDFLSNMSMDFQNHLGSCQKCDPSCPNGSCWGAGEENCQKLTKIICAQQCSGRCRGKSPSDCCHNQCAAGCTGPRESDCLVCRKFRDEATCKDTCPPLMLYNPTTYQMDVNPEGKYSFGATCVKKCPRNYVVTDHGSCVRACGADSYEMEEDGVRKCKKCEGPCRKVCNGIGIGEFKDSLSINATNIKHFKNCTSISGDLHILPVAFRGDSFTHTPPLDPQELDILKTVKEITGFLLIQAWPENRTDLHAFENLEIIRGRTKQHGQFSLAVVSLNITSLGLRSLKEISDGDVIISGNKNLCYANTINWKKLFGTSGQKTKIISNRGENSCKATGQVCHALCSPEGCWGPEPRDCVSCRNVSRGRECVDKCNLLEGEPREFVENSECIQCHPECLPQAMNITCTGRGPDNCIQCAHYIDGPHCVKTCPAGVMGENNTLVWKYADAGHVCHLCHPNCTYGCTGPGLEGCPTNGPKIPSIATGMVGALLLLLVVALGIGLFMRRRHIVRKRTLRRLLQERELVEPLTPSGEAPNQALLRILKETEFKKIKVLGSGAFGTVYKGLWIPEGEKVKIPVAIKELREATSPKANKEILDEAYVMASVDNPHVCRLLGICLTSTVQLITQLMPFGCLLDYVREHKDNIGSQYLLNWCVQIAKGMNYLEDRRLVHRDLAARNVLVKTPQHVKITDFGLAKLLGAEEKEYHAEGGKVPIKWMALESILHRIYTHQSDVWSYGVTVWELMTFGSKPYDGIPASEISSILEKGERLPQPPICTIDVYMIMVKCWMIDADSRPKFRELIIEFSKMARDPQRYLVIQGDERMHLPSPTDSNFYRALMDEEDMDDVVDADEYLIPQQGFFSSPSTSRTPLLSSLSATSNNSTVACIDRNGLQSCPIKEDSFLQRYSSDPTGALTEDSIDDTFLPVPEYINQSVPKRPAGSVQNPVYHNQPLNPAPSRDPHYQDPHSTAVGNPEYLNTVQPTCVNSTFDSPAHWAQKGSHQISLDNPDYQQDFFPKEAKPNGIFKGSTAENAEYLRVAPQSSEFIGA

Active and inactive are the calls of the source. The calls are words filed in the database; no cut-off is given here.

Phosphatidylinositol 4-phosphate 5-kinase type-1 alpha (Homo sapiens), sequence (Q99755 whole entry): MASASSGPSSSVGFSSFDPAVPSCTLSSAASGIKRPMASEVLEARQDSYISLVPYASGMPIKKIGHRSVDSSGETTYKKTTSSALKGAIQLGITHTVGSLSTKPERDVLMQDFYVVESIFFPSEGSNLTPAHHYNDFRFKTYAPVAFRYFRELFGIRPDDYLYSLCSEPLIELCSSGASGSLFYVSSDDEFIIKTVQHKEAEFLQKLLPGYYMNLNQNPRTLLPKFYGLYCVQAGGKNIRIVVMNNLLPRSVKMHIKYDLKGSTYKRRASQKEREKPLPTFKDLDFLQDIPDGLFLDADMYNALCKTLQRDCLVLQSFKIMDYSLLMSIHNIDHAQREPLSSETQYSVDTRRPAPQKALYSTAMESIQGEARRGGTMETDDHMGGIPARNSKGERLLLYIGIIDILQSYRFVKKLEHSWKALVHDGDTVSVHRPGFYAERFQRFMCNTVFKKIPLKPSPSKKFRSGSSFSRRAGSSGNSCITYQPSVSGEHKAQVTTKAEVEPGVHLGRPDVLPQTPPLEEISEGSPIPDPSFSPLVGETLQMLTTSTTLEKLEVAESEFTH
Mitogen-activated protein kinase kinase kinase 12 (Homo sapiens), sequence (Q12852 whole entry, looked up): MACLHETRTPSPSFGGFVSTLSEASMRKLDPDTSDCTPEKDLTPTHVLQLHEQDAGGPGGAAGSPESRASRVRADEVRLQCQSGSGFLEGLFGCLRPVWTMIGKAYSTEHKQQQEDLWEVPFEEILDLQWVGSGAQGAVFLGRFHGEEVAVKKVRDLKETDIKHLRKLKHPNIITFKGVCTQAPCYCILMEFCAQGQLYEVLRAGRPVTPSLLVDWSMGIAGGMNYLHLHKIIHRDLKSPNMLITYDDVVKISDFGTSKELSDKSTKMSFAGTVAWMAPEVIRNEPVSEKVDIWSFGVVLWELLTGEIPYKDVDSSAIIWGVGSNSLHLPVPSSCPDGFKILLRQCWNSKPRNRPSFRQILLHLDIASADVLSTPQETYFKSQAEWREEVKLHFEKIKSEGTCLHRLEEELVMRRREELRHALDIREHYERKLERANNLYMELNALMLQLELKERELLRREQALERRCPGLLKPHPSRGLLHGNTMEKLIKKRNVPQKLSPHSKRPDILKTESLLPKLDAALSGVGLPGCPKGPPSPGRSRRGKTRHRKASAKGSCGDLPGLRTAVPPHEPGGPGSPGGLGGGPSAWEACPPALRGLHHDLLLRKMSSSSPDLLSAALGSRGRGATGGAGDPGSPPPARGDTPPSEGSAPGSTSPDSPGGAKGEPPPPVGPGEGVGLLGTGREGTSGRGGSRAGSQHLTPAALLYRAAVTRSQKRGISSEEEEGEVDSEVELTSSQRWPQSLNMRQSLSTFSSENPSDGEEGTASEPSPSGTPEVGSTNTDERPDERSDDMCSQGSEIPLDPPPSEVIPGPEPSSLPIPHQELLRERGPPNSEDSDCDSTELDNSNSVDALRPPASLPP
cAMP-dependent protein kinase catalytic subunit PRKX (Homo sapiens), sequence (P51817 whole entry): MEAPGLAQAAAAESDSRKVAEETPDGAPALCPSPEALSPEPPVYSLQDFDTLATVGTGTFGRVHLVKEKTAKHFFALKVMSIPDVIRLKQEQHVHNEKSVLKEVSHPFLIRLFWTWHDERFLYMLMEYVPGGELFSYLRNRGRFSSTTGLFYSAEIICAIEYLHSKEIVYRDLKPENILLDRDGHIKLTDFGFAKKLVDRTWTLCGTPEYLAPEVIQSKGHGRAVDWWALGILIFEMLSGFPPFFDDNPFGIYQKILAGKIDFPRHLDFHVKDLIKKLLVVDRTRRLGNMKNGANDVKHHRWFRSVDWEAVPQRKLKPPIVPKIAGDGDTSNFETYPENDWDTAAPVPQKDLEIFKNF

For the compound `CCN1CCN(Cc2ccc(NC(=O)c3ccc(C)c(/C=C/c4cnc5[nH]ccc5c4OC)c3)cc2C(F)(F)F)CC1`, the inhibition in test [1] was 57%; in test [2], 74%. This compound also returned a residual activity in [3] of 76%.

`CCN1CCN(Cc2ccc(NC(=O)c3ccc(C)c(Oc4ccnc5[nH]ccc45)c3)cc2C(F)(F)F)CC1`: the inhibition result in [4] and in test [5] was “inactive” each time. Further, the inhibition in test [6] was -3.2%; in [7], 5.5%. The compound also gave a percent of control in [8] of 14%.

As to `CNc1cc(Oc2cc(C(=O)Nc3cc(N4CCN(C)CC4)cc(C(F)(F)F)c3)ccc2C)ncn1`, the inhibition in test [9] was -3.2%.

The inhibition is the drop in the measured response relative to a control, in per cent. Broadly, the residual activity is what remains of the control signal, in per cent. A higher residual activity goes with much activity left.

The record behind these values is ChEMBL document CHEMBL5696442, “Discovery of type II inhibitors of TGFβ-activated kinase 1 (TAK1) and mitogen-activated protein kinase kinase kinase kinase 2 (MAP4K2)” (J Med Chem, 2015).
